From US8557527B2 (HistoRx, Inc., priority 2008, dated 2013)

Columns and labels:
[1] = tested on: Newly Diagnosed Glioblastoma (GBM); settings: Gefitinib+Radiation vs historical controls; cited from earlier work
GBM = experiment: Clinical outcome of RT+Gefitinib (RTOG 0211, Array 19) versus RT alone (historical, Array 8) patients stratified by AQUA biomarker level
[2] = tested on: chronic myelogenous leukemia and gastrointestinal stromal tumors; settings: patients with chronic myelogenous leukemia and gastrointestinal stromal tumors; cited from earlier work

Compound	survival compared to historical controls [1]	overall survival, RTOG 0211 versus historical controls (RT alone) (GBM; patients with elevated ratio of cytoplasmic to nuclear pAKT)	overall survival times, Gefitinib+RT versus RT only (GBM; patients with intermediate-to-high levels of Src expression)	clinical outcome, RT+Gefitinib versus RT alone (GBM; patients with lower levels of PTEN expression, p=0.08)	efficacy as therapy [2]	toxicity as therapy [2]
COc1cc2ncnc(Nc3ccc(F)c(Cl)c3)c2cc1OCCCN1CCOCC1 [Gefitinib]	survival was not significantly improved	improved overall survival	significantly worse overall survival times	trend towards improved outcome	–	–
Cc1ccc(NC(=O)c2ccc(CN3CCN(C)CC3)cc2)cc1Nc1nccc(-c2cccnc2)n1 [STI-571]	–	–	–	–	highly effective	non-toxic
